From patent US20240254123A1, “PYRIDOPYRIMIDINE DERIVATIVES USEFUL AS WEE1 KINASE INHIBITORS” (APREA THERAPEUTICS, INC., priority 2021, published 2024)

Columns and labels:
[1] = target: PLK1 (Homo sapiens, UniProt P53350); test: in vitro enzymatic inhibitory activity, PLK1 kinase, 10-dose IC50 mode; type: biochemical; settings: 10 μM ATP
Method: (§1) Compounds were tested against two kinases.
(§2) Data includes raw data, % Enzyme activity (relative to DMSO controls) and curve fits.

[2] = target: T1, WEE1 (Homo sapiens, UniProt P30291); test: in vitro enzymatic inhibitory activity, WEE1 kinase, 10-dose IC50 mode; type: biochemical; settings: 10 μM ATP
T1 construct: Drug treated cells are fixed and stained with propidium iodide (PI); endogenous in cells
Method: as §1, §2

[3] = target: T1, WEE1; test: Guava flow cytometry cell cycle assay (DNA content per cell, propidium iodide); type: cell-based
Description: In this example, compounds described herein were subject to an assay that detects changes the phases of the cell cycle upon drug treatment, permitting the identification of drugs that affect cell proliferation in a specific manner. For example, problematic DNA replication causes the percentage of cells in S phase to increase. Thus, quantification of cells in S phase permits identification of drugs that cause defects in DNA replication. Similarly, drugs that selectively defects in progression through G2/M can also be identified. Moreover, synergy between assayed drugs and known cell cycle regulators can be determined, as exemplified by the effect of ATR inhibition when combined with agents that slow DNA replication, which causes replication fork collapse into DSBs and complete loss of DNA synthesis. Two novel drugs can also be combined to quantify synergistic effects on specific cell cycle phases.
The assay operates by the quantification of DNA content per cell by flow cytometry. Cells are assessed for effects on cell cycle using a Guava EasyCyte™ flow cytometer (Austin, TX). Drug treated cells are fixed and stained with propidium iodide (PI) and resuspended in phosphate-buffered saline containing the PI staining buffer. During flow cytometry, PI is excited at 528 nm and is detected in a 610/20 bandpass. Readout of the […] is optical density of DNA-staining dye. The assay generates a histogram showing count of cells by amount of DNA, which is an indicator of place in the cell cycle. This rapid assay detects relative changes in the cell cycle upon drug treatment upon comparison vehicle-treated and single-agent controls for detection of combinatorial interactions. See, Table 4.

T1 sequence (P30291 whole entry): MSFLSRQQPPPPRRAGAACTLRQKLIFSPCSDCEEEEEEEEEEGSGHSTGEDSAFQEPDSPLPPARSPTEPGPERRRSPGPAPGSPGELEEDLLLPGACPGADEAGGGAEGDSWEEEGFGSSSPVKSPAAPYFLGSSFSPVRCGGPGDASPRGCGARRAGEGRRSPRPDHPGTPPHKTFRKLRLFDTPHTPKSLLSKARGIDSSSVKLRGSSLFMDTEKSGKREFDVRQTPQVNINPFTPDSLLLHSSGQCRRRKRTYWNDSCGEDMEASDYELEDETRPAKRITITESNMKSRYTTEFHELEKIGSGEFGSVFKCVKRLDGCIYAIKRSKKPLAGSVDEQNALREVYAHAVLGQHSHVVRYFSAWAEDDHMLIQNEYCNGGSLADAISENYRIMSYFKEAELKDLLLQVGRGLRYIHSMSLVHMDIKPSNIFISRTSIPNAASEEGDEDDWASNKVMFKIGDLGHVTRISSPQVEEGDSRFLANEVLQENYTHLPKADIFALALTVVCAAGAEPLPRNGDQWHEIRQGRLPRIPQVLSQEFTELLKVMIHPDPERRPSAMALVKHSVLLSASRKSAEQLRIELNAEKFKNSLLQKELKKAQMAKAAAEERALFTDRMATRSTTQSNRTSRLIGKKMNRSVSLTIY
PLK1, sequence (P53350 whole entry, species assumed): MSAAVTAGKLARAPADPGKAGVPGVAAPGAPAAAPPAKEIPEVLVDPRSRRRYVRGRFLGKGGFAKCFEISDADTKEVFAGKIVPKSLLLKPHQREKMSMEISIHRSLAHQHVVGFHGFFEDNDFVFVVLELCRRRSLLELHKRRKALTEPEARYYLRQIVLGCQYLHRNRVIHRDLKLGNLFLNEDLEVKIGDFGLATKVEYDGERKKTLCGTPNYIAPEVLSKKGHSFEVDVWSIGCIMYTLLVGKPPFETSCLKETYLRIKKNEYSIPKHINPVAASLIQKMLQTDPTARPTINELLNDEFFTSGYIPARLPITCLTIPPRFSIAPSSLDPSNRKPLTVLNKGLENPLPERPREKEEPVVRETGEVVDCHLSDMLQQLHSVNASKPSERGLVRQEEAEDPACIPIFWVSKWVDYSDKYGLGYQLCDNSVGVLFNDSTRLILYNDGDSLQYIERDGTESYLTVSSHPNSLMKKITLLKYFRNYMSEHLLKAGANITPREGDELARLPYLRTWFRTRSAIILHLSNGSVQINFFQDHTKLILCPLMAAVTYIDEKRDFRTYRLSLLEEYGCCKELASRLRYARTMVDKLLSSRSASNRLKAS

IC50 [1]	IC50 [2]	WEE1 Guava MEC Guava MEC ([3]; single agent, unit assumed)	WEE1 Guava MEC with 20 nM GEM ([3]; with 20 nM GEM, in µM (unit assumed))	SMILES
159 nM				C=CCn1c(=O)c2cnc(Nc3ccc(N4CCN(C)CC4)cc3)nc2n1-c1cccc(C(C)(C)O)n1 [AZD1775]
	27 nM	0.313 µM	0.156	O=c1c2cnc(Nc3ccc4c(c3)CNCC4)nc2c(Br)cn1-c1c(Cl)cccc1Cl [Compound P10, 8-bromo-6-(2,6-dichlorophenyl)-2-(1,2,3,4-tetrahydroisoquinolin-7-ylamino)pyrido[4,3-d]pyrimidin-5-one]
